Experimental data published in US9371319B2, “Pyrrolopyridineamino derivatives as MPS1 inhibitors” (priority 2011, dated 2016).

Target: T1, full length MPS1 (Homo sapiens, UniProt P33981)
T1 sequence (P33981 1-857): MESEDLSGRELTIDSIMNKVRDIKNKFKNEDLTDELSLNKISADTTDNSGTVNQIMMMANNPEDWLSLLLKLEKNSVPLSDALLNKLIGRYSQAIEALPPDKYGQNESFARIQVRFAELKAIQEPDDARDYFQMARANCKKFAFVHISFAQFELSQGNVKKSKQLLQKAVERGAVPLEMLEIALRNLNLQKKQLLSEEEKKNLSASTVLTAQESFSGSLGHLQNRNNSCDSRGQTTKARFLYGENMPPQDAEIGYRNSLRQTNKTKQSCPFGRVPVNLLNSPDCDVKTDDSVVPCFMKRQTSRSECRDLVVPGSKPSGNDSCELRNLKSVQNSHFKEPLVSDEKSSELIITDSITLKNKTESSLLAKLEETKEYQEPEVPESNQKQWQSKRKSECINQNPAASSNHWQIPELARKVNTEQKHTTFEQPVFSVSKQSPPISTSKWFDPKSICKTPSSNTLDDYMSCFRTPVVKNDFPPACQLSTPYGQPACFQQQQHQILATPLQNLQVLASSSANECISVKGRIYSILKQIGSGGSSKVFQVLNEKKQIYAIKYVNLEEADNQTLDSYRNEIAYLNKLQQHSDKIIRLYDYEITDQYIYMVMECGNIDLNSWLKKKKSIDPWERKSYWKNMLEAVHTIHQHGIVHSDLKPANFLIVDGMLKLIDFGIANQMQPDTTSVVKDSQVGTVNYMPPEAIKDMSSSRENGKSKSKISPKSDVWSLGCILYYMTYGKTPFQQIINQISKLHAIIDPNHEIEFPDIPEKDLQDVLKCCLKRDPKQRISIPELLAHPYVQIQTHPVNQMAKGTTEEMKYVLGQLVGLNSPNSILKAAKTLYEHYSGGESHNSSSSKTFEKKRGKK
Assay: biochemical
Experimental: Measurement of Inhibition of MPS1 Kinase
(5 μM), ATP (10 μM), either DMSO (1% v/v) or the test compound (in the range 0.25 nM-100 μM in 1% DMSO) and assay buffer (50 mM HEPES (pH 7.0), 0.02% NaN3, 0.01% BSA, 0.1 mM Orthovandate, […], 1 μM DTT, Roche protease inhibitor). The reaction was carried out for 60 min at room temperature and stopped by the addition of buffer (10 μl) containing 20 mM EDTA, 0.05% (v/v) Brij-35, in 0.1M HEPES-buffered saline (Free acid, Sigma, UK). The plate was read on a Caliper EZ reader II (Caliper Life Sciences).
The % inhibition of the compounds is calculated relative to the means of selected control wells. […] The % inhibitions at each concentration are then fitted to a 4 parameter logistic fit: y=(a+((b−a)/(1+((c/x^d)))) where a=asym min, b=asym max, c=IC50 and d=hill coefficient

COc1cc(CN2CCCC2)ccc1Nc1cc2[nH]c(-c3cnn(C)c3)cc2cn1 [Example 137, N-(2-methoxy-4-(pyrrolidin-1-ylmethyl)phenyl)-2-(1-methyl-1H-pyrazol-4-yl)-1H-pyrrolo[3,2-c]pyridin-6-amine] was tested. Which IC50 did it give?
The IC50 was 25 nM.

Which IC50 does the source give for CNCc1ccc(Nc2cc3[nH]c(-c4cnn(C)c4)cc3cn2)c(OC)c1 [Example 138, N-(2-methoxy-4-((methylamino)methyl)phenyl)-2-(1-methyl-1H-pyrazol-4-yl)-1H-pyrrolo[3,2-c]pyridin-6-amine] here?
Its IC50 is 31 nM.

COc1cc(CN(C)C)ccc1Nc1cc2[nH]c(-c3cnn(C)c3)cc2cn1 [Example 139, N-(4-((dimethylamino)methyl)-2-methoxyphenyl)-2-(1-methyl-1H-pyrazol-4-yl)-1H-pyrrolo[3,2-c]pyridin-6-amine] was tested. Which IC50 did it give?
The IC50 was 55 nM.

For COc1cc(CN)ccc1Nc1cc2[nH]c(-c3cnn(C)c3)cc2cn1 [Example 140, N-(4-(Aminomethyl)-2-methoxyphenyl)-2-(1-methyl-1H-pyrazol-4-yl)-1H-pyrrolo[3,2-c]pyridin-6-amine], which IC50 is on record?
The IC50 was 43 nM.

How did the IC50 turn out when Cn1cc(-c2cc3cnc(Nc4cccc(OCC#N)c4)cc3[nH]2)cn1 [Example 141, 2-(3-(2-(1-Methyl-1H-pyrazol-4-yl)-1H-pyrrolo[3,2-c]pyridin-6-ylamino)phenoxy)acetonitrile] was run?
Its IC50 is 132 nM.

How did the IC50 turn out when COC1CN(C(=O)c2ccc(Nc3cc4[nH]c(-c5cnn(C)c5)cc4cn3)c(Cl)c2)C1 [Example 142, (3-Chloro-4-(2-(1-methyl-1H-pyrazol-4-yl)-1H-pyrrolo[3,2-c]pyridin-6-ylamino)phenyl)(3-methoxyazetidin-1-yl)methanone] was run?
The IC50 was 10 nM.

With CCN(C)C(=O)c1ccc(Nc2cc3[nH]c(-c4cnn(C)c4)cc3cn2)c(Cl)c1 [Example 144, 3-Chloro-N-ethyl-N-methyl-4-(2-(1-methyl-1H-pyrazol-4-yl)-1H-pyrrolo[3,2-c]pyridin-6-ylamino)benzamide] as the compound, how does the IC50 read?
The IC50 was 11 nM.

How did the IC50 turn out when Cn1cc(-c2cc3cnc(Nc4ccc(C(=O)N5CCCC5)cc4Cl)cc3[nH]2)cn1 [Example 145, (3-Chloro-4-(2-(1-methyl-1H-pyrazol-4-yl)-1H-pyrrolo[3,2-c]pyridin-6-ylamino)phenyl)(pyrrolidin-1-yl)methanone] was run?
Its IC50 is 12 nM.

With CN1CCN(C(=O)c2ccc(Nc3cc4[nH]c(-c5cnn(C)c5)cc4cn3)c(Cl)c2)CC1 [Example 146, (3-Chloro-4-(2-(1-methyl-1H-pyrazol-4-yl)-1H-pyrrolo[3,2-c]pyridin-6-ylamino)phenyl)(4-methylpiperazin-1-yl) methanone] as the compound, how does the IC50 read?
Its IC50 is 20 nM.

With Cn1cc(-c2cc3cnc(Nc4ccc(-c5ccnn5C)cc4Cl)cc3[nH]2)cn1 [Example 149, N-(2-Chloro-4-(1-methyl-1H-pyrazol-5-yl)phenyl)-2-(1-methyl-1H-pyrazol-4-yl)-1H-pyrrolo[3,2-c]pyridin-6-amine] as the compound, how does the IC50 read?
The IC50 was 22 nM.

Cc1nc(C)c(-c2ccc(Nc3cc4[nH]c(-c5cnn(C)c5)cc4cn3)c(Cl)c2)s1 [Example 150, N-(2-Chloro-4-(2,4-dimethylthiazol-5-yl)phenyl)-2-(1-methyl-1H-pyrazol-4-yl)-1H-pyrrolo[3,2-c]pyridin-6-amine] was tested. Which IC50 did it give?
Its IC50 is 114 nM.

How did the IC50 turn out when COc1cc(-c2ccc(Nc3cc4[nH]c(-c5cnn(C)c5)cc4cn3)c(Cl)c2)ccn1 [Example 151, N-(2-Chloro-4-(2-methoxypyridin-4-yl)phenyl)-2-(1-methyl-1H-pyrazol-4-yl)-1H-pyrrolo[3,2-c]pyridin-6-amine] was run?
The IC50 was 182 nM.

Cc1ncc(-c2ccc(Nc3cc4[nH]c(-c5cnn(C)c5)cc4cn3)c(Cl)c2)n1C [Example 152, N-(2-Chloro-4-(1,2-dimethyl-1H-imidazol-5-yl)phenyl)-2-(1-methyl-1H-pyrazol-4-yl)-1H-pyrrolo[3,2-c]pyridin-6-amine] was tested. Which IC50 did it give?
Its IC50 is 5 nM.

Cn1cc(-c2cc3cnc(Nc4ccc(C(=O)N5CC(F)(F)C5)cc4Cl)cc3[nH]2)cn1 [Example 153, (3-Chloro-4-((2-(1-methyl-1H-pyrazol-4-yl)-1H-pyrrolo[3,2-c]pyridin-6-yl)amino)phenyl)(3,3-difluoroazetidin-1-yl)methanone] was tested. Which IC50 did it give?
The IC50 was 21 nM.

With CS(=O)(=O)c1ccc(Nc2cc3[nH]c(-c4cn[nH]c4)cc3cn2)c(Cl)c1 [Example 154, N-(2-chloro-4-(methylsulfonyl)phenyl)-2-(1H-pyrazol-4-yl)-1H-pyrrolo[3,2-c]pyridin-6-amine] as the compound, how does the IC50 read?
The IC50 was 2 nM.

For COc1ccc(Nc2cc3[nH]c(-c4cnn(C)c4)cc3cn2)c(F)c1 [Example 155, N-(2-Fluoro-4-methoxyphenyl)-2-(1-methyl-1H-pyrazol-4-yl)-1H-pyrrolo[3,2-c]pyridin-6-amine], which IC50 is on record?
The IC50 was 53 nM.

Which IC50 does the source give for COc1cc(C(F)(F)F)ccc1Nc1cc2[nH]c(-c3cnn(C)c3)cc2cn1 [Example 156, N-(2-Methoxy-4-(trifluoromethyl)phenyl)-2-(1-methyl-1H-pyrazol-4-yl)-1H-pyrrolo[3,2-c]pyridin-6-amine] here?
The IC50 was 164 nM.

COc1cc(F)ccc1Nc1cc2[nH]c(-c3cnn(C)c3)cc2cn1 [Example 157, N-(4-Fluoro-2-methoxyphenyl)-2-(1-methyl-1H-pyrazol-4-yl)-1H-pyrrolo[3,2-c]pyridin-6-amine] was tested. Which IC50 did it give?
The IC50 was 119 nM.

For COc1ccc(Nc2cc3[nH]c(-c4cn[nH]c4)cc3cn2)c(OC)c1 [Example 160, N-(2,4-Dimethoxyphenyl)-2-(1H-pyrazol-4-yl)-1H-pyrrolo[3,2-c]pyridin-6-amine], which IC50 is on record?
The IC50 was 19 nM.

FC(F)(F)c1ccc(Nc2cc3[nH]c(-c4cn[nH]c4)cc3cn2)cc1 [Example 161, 2-(1H-Pyrazol-4-yl)-N-(4-(trifluoromethyl)phenyl)-1H-pyrrolo[3,2-c]pyridin-6-amine] was tested. Which IC50 did it give?
Its IC50 is 1060 nM.

How did the IC50 turn out when FC(F)(F)c1ccccc1Nc1cc2[nH]c(-c3cn[nH]c3)cc2cn1 [Example 164, 2-(1H-Pyrazol-4-yl)-N-(2-(trifluoromethyl)phenyl)-1H-pyrrolo[3,2-c]pyridin-6-amine] was run?
The IC50 was 512 nM.

With COc1cc(OC2CCN(C)CC2)ccc1Nc1cc2[nH]c(-c3cn[nH]c3)cc2cn1 [Example 166, N-(2-Methoxy-4-(1-methylpiperidin-4-yloxy)phenyl)-2-(1H-pyrazol-4-yl)-1H-pyrrolo[3,2-c]pyridin-6-amine] as the compound, how does the IC50 read?
Its IC50 is 7 nM.

For CN(C)C(=O)c1ccc(Nc2cc3[nH]c(-c4cn[nH]c4)cc3cn2)cc1 [Example 168, 4-(2-(1H-Pyrazol-4-yl)-1H-pyrrolo[3,2-c]pyridin-6-ylamino)-N,N-dimethylbenzamide], which IC50 is on record?
Its IC50 is 11 nM.

How did the IC50 turn out when CC(=O)N1CCN(c2ccc(Nc3cc4[nH]c(-c5cn[nH]c5)cc4cn3)cc2)CC1 [Example 169, 1-(4-(4-(2-(1H-Pyrazol-4-yl)-1H-pyrrolo[3,2-c]pyridin-6-ylamino)phenyl)piperazin-1-yl)ethanone] was run?
The IC50 was 80 nM.

How did the IC50 turn out when COCCOc1ccc(Nc2cc3[nH]c(-c4cn[nH]c4)cc3cn2)cc1 [Example 170, N-(4-(2-Methoxyethoxy)phenyl)-2-(1H-pyrazol-4-yl)-1H-pyrrolo[3,2-c]pyridin-6-amine] was run?
The IC50 was 9 nM.

Which IC50 does the source give for c1cc(Nc2cc3[nH]c(-c4cn[nH]c4)cc3cn2)ccc1CN1CCOCC1 [Example 171, N-(4-(Morpholinomethyl)phenyl)-2-(1H-pyrazol-4-yl)-1H-pyrrolo[3,2-c]pyridin-6-amine] here?
The IC50 was 9 nM.

How did the IC50 turn out when COc1ccc(Nc2cc3[nH]c(-c4cnn(Cc5cc(C)on5)c4)cc3cn2)c(OC)c1 [Example 173, N-(2,4-Dimethoxyphenyl)-2-(1-((5-methylisoxazol-3-yl)methyl)-1H-pyrazol-4-yl)-1H-pyrrolo[3,2-c]pyridin-6-amine] was run?
Its IC50 is 207 nM.

For O=S1(=O)CCN(Cc2ccc(Nc3cc4[nH]c(-c5cn[nH]c5)cc4cn3)cc2)CC1 [Example 175, 2-(1H-Pyrazol-4-yl)-N-(4-(thiomorpholinomethyl)phenyl)-1H-pyrrolo[3,2-c]pyridin-6-amine-S,S-dioxide], which IC50 is on record?
Its IC50 is 4 nM.

How did the IC50 turn out when N#Cc1ccc(Nc2cc3[nH]c(-c4cn[nH]c4)cc3cn2)cc1 [Example 177, 4-(2-(1H-pyrazol-4-yl)-1H-pyrrolo[3,2-c]pyridin-6-ylamino) benzonitrile] was run?
The IC50 was 150 nM.

How did the IC50 turn out when CN(C)C(=O)c1ccc(Nc2cc3[nH]c(-c4cnco4)c(Cl)c3cn2)c(Cl)c1 [Example 178, 3-Chloro-4-(3-chloro-2-(oxazol-5-yl)-1H-pyrrolo[3,2-c]pyridin-6-ylamino)-N,N-dimethylbenzamide] was run?
Its IC50 is 3 nM.
